Measurements as given in patent publication US10047050B2, “3,4-di-substituted pyridine compound, methods of using and compositions comprising the same” (ARDEA BIOSCIENCES, INC., priority 2011, dated 2018).
“And” between values parts separate entries of the source, which are not always exact repeats. Identical values can stand only once.

Test system: serum uric acid
Assay: Single-dose Phase I clinical trial, serum uric acid (sUA) 0-72 hours post-dose
Assay type: in vivo, human
Details: for Absolute sUA concentration, Mean (3-8) / % sUA reduction (from baseline), Mean (3-8) / % sUA change (from baseline), Mean (3-8): mean of subjects 3-8; for % sUA reduction (from baseline) / % sUA change (from baseline): individual subjects 3-8
Protocol: A Phase 1, Randomized, Double-Blind, Placebo-Controlled Study to Evaluate Safety, Tolerability, Pharmacokinetics and Preliminary Food Effect of Single Doses of a URAT1 Inhibitor, in Healthy Adult Male Volunteers.
To assess safety, tolerability, pharmacokinetics and uricosuric effects after oral administration as single doses of a tablet formulation and the effect of food on bioavailability.
Subjects receive a single, oral dose of active or placebo, at the following doses:
Group 4: 20 mg (fasted) [sentinel dosing];
48 subjects in 6 dose groups, 8 subjects/group, are randomized 3:1 to receive active (6/group) or placebo (2/group). All study procedures are the same regardless of whether subject receives active or placebo. The total duration of subject participation, including screening period, is ˜2-4 weeks, and the total volume of blood collected from each subject during the entire study <500 mL, (less than typically collected during a volunteer blood donation).
5 mg and 20 mg, active and placebo, tablets packaged in 35 count HDPE bottles, stored at controlled room temperature (15-30° C.). Placebo tablets are designed to match the active tablets—identical size, form, taste, and color, and containing the same excipients. 2 mg was dosed as an oral solution.
Subjects dosed on the morning of Day 1 with ˜240 mL of room temp water.
Fasted: subjects are dosed after overnight fast >10 hours and remain fasted until >4 hours post-dose.
Fed: subjects fast overnight for >10 hours, then are dosed 30 mins after completing standard moderate fat breakfast (no high fructose corn syrup).
Serum samples are collected at:
PD samples are frozen (−20° C.) and stored; all samples from a given subject assayed in a single analytical run.

[1] = Group 3, 5 mg single oral dose, fed, 54 h post-dose
[2] = Group 3, 5 mg single oral dose, fed, 60 h post-dose
[3] = Group 3, 5 mg single oral dose, fed, 72 h post-dose
[4] = Group 4, 20 mg single oral dose, fasted, 0 h (baseline)
[5] = Group 4, 20 mg single oral dose, fasted, 6 h post-dose
[6] = Group 4, 20 mg single oral dose, fasted, 12 h post-dose
[7] = Group 4, 20 mg single oral dose, fasted, 24 h post-dose
[8] = Group 4, 20 mg single oral dose, fasted, 30 h post-dose
[9] = Group 4, 20 mg single oral dose, fasted, 36 h post-dose
[10] = Group 4, 20 mg single oral dose, fasted, 48 h post-dose
[11] = Group 4, 20 mg single oral dose, fasted, 54 h post-dose
[12] = Group 4, 20 mg single oral dose, fasted, 60 h post-dose
[13] = Group 4, 20 mg single oral dose, fasted, 72 h post-dose
[14] = Group 5, 20 mg single oral dose, fed, 0 h (baseline)
[15] = Group 5, 20 mg single oral dose, fed, 6 h post-dose
[16] = Group 5, 20 mg single oral dose, fed, 12 h post-dose
[17] = Group 5, 20 mg single oral dose, fed, 24 h post-dose
[18] = Group 5, 20 mg single oral dose, fed, 30 h post-dose
[19] = Group 5, 20 mg single oral dose, fed, 36 h post-dose
[20] = Group 5, 20 mg single oral dose, fed, 48 h post-dose
[21] = Group 5, 20 mg single oral dose, fed, 54 h post-dose
[22] = Group 5, 20 mg single oral dose, fed, 60 h post-dose
[23] = Group 5, 20 mg single oral dose, fed, 72 h post-dose
[24] = Group 6, 40 mg single oral dose, fasted, 0 h (baseline)
[25] = Group 6, 40 mg single oral dose, fasted, 6 h post-dose
[26] = Group 6, 40 mg single oral dose, fasted, 12 h post-dose
[27] = Group 6, 40 mg single oral dose, fasted, 24 h post-dose
[28] = Group 6, 40 mg single oral dose, fasted, 30 h post-dose
[29] = Group 6, 40 mg single oral dose, fasted, 36 h post-dose
[30] = Group 6, 40 mg single oral dose, fasted, 48 h post-dose
[31] = Group 6, 40 mg single oral dose, fasted, 54 h post-dose
[32] = Group 6, 40 mg single oral dose, fasted, 60 h post-dose
[33] = Group 6, 40 mg single oral dose, fasted, 72 h post-dose

Q: How did the “Absolute sUA concentration, Mean (3-8)” value (Group 3, 5 mg single oral dose, fed, 48 h post-dose) turn out when `CC(C)(Sc1ccncc1-c1ccc(C#N)c2ccccc12)C(=O)O` [2-((3-(4-cyanonaphthalen-1-yl)pyridin-4-yl)thio)-2-methylpropanoic acid] was run?
A: Its value is 4.5 mg/dL.

Q: What about the “% sUA reduction (from baseline)” value [1] of the same compound?
A: The value was −37.7% and −47.0% and −27.7% and −38.3% and −21.1% and −32.5%.

Q: And the “% sUA reduction (from baseline), Mean (3-8)” value (“% sUA reduction … (3-8)” for short) [1]?
A: The value was −34.1%.

Q: And the “Absolute sUA concentration, Mean (3-8)” value [1]?
A: The value was 3.9 mg/dL.

Q: What about the “% sUA reduction (from baseline)” value [2] of the same compound?
A: Its value is −27.5% and −28.8% and −30.8% and −20.0% and −24.6% and −35.0%.

Q: What about the “% sUA reduction … (3-8)” value [2] of the same compound?
A: Its value is −27.8%.

Q: And the “Absolute sUA concentration, Mean (3-8)” value [2]?
A: The value was 4.3 mg/dL.

Q: What about the “% sUA reduction (from baseline)” value [3] of the same compound?
A: Its value is −14.5% and −18.2% and −20.0% and −11.7% and −15.8% and −25.0%.

Q: And the “% sUA reduction … (3-8)” value [3]?
A: The value was −17.5%.

Q: What about the “Absolute sUA concentration, Mean (3-8)” value [3] of the same compound?
A: Its value is 4.9 mg/dL.

Q: What about the “% sUA reduction … (3-8)” value [4] of the same compound?
A: The value was 0%.

Q: And the “Absolute sUA concentration, Mean (3-8)” value [4]?
A: Its value is 6.8 mg/dL.

Q: And the “% sUA reduction … (3-8)” value [5]?
A: The value was −37.1%.

Q: And the “Absolute sUA concentration, Mean (3-8)” value [5]?
A: Its value is 4.3 mg/dL.

Q: And the “% sUA reduction … (3-8)” value [6]?
A: Its value is −41.2%.

Q: What about the “Absolute sUA concentration, Mean (3-8)” value [6] of the same compound?
A: The value was 4.0 mg/dL.

Q: And the “% sUA reduction … (3-8)” value [7]?
A: The value was −43.1%.

Q: And the “Absolute sUA concentration, Mean (3-8)” value [7]?
A: The value was 3.8 mg/dL.

Q: What about the “% sUA reduction … (3-8)” value [8] of the same compound?
A: Its value is −47.4%.

Q: What about the “Absolute sUA concentration, Mean (3-8)” value [8] of the same compound?
A: Its value is 3.6 mg/dL.

Q: What about the “% sUA reduction … (3-8)” value [9] of the same compound?
A: Its value is −48.4%.

Q: What about the “Absolute sUA concentration, Mean (3-8)” value [9] of the same compound?
A: The value was 3.5 mg/dL.

Q: And the “% sUA reduction … (3-8)” value [10]?
A: Its value is −39.0%.

Q: What about the “Absolute sUA concentration, Mean (3-8)” value [10] of the same compound?
A: The value was 4.1 mg/dL.

Q: What about the “% sUA reduction … (3-8)” value [11] of the same compound?
A: The value was −37.6%.

Q: What about the “Absolute sUA concentration, Mean (3-8)” value [11] of the same compound?
A: Its value is 4.2 mg/dL.

Q: And the “% sUA reduction … (3-8)” value [12]?
A: Its value is −37.6%.

Q: What about the “Absolute sUA concentration, Mean (3-8)” value [12] of the same compound?
A: Its value is 4.2 mg/dL.

Q: What about the “% sUA reduction … (3-8)” value [13] of the same compound?
A: Its value is −21.5%.

Q: And the “Absolute sUA concentration, Mean (3-8)” value [13]?
A: Its value is 5.3 mg/dL.

Q: And the “% sUA reduction … (3-8)” value [14]?
A: The value was 0%.

Q: And the “Absolute sUA concentration, Mean (3-8)” value [14]?
A: The value was 7.1 mg/dL.

Q: And the “% sUA reduction … (3-8)” value [15]?
A: Its value is −44.6%.

Q: And the “Absolute sUA concentration, Mean (3-8)” value [15]?
A: Its value is 3.9 mg/dL.

Q: What about the “% sUA reduction … (3-8)” value [16] of the same compound?
A: Its value is −56.5%.

Q: What about the “Absolute sUA concentration, Mean (3-8)” value [16] of the same compound?
A: Its value is 3.1 mg/dL.

Q: And the “% sUA reduction … (3-8)” value [17]?
A: Its value is −46.1%.

Q: And the “Absolute sUA concentration, Mean (3-8)” value [17]?
A: Its value is 3.8 mg/dL.

Q: And the “% sUA reduction … (3-8)” value [18]?
A: Its value is −48%.

Q: What about the “Absolute sUA concentration, Mean (3-8)” value [18] of the same compound?
A: Its value is 3.7 mg/dL.

Q: What about the “% sUA reduction … (3-8)” value [19] of the same compound?
A: Its value is −49.9%.

Q: What about the “Absolute sUA concentration, Mean (3-8)” value [19] of the same compound?
A: Its value is 3.5 mg/dL.

Q: And the “% sUA reduction … (3-8)” value [20]?
A: The value was −37.6%.

Q: And the “Absolute sUA concentration, Mean (3-8)” value [20]?
A: Its value is 4.4 mg/dL.

Q: What about the “% sUA reduction … (3-8)” value [21] of the same compound?
A: Its value is −38.8%.

Q: What about the “Absolute sUA concentration, Mean (3-8)” value [21] of the same compound?
A: The value was 4.3 mg/dL.

Q: What about the “% sUA reduction … (3-8)” value [22] of the same compound?
A: The value was −40.3%.

Q: And the “Absolute sUA concentration, Mean (3-8)” value [22]?
A: Its value is 4.2 mg/dL.

Q: And the “% sUA reduction … (3-8)” value [23]?
A: Its value is −28.6%.

Q: And the “Absolute sUA concentration, Mean (3-8)” value [23]?
A: The value was 5.0 mg/dL.

Q: What about the “% sUA change (from baseline)” value [24] of the same compound?
A: Its value is 0%.

Q: And the “% sUA change (from baseline), Mean (3-8)” value [24]?
A: Its value is 0%.

Q: And the “Absolute sUA concentration, Mean (3-8)” value [24]?
A: Its value is 6.6 mg/dL.

Q: What about the “% sUA change (from baseline)” value [25] of the same compound?
A: Its value is −23.7% and −51.4% and −38.2% and −54.1% and −49.2% and −42.1%.

Q: And the “% sUA change (from baseline), Mean (3-8)” value [25]?
A: Its value is −43.1%.

Q: And the “Absolute sUA concentration, Mean (3-8)” value [25]?
A: Its value is 3.8 mg/dL.

Q: And the “% sUA change (from baseline)” value [26]?
A: Its value is −40.8% and −68.9% and −52.9% and −63.9%.

Q: What about the “% sUA change (from baseline), Mean (3-8)” value [26] of the same compound?
A: The value was −59.3%.

Q: What about the “Absolute sUA concentration, Mean (3-8)” value [26] of the same compound?
A: The value was 2.7 mg/dL.

Q: And the “% sUA change (from baseline), Mean (3-8)” value [27]?
A: The value was −57.6%.

Q: And the “Absolute sUA concentration, Mean (3-8)” value [27]?
A: The value was 2.8 mg/dL.

Q: And the “% sUA change (from baseline), Mean (3-8)” value [28]?
A: The value was −60.6%.

Q: And the “Absolute sUA concentration, Mean (3-8)” value [28]?
A: The value was 2.6 mg/dL.

Q: And the “% sUA change (from baseline), Mean (3-8)” value [29]?
A: The value was −61.4%.

Q: And the “Absolute sUA concentration, Mean (3-8)” value [29]?
A: The value was 2.5 mg/dL.

Q: And the “% sUA change (from baseline)” value [30]?
A: Its value is −53.9% and −50.0% and −48.5% and −37.7% and −55.9% and −45.6%.

Q: And the “% sUA change (from baseline), Mean (3-8)” value [30]?
A: Its value is −48.6%.

Q: And the “Absolute sUA concentration, Mean (3-8)” value [30]?
A: Its value is 3.4 mg/dL.

Q: And the “% sUA change (from baseline)” value [31]?
A: The value was −56.6% and −47.3% and −50.0% and −39.3% and −54.2% and −40.4%.

Q: What about the “% sUA change (from baseline), Mean (3-8)” value [31] of the same compound?
A: The value was −48.0%.

Q: What about the “Absolute sUA concentration, Mean (3-8)” value [31] of the same compound?
A: Its value is 3.4 mg/dL.

Q: What about the “% sUA change (from baseline)” value [32] of the same compound?
A: Its value is −56.6% and −50.0% and −48.5% and −39.3% and −52.5% and −36.8%.

Q: What about the “% sUA change (from baseline), Mean (3-8)” value [32] of the same compound?
A: The value was −47.3%.

Q: And the “Absolute sUA concentration, Mean (3-8)” value [32]?
A: Its value is 3.4 mg/dL.

Q: What about the “% sUA change (from baseline)” value [33] of the same compound?
A: The value was −40.8% and −31.1% and −33.8% and −19.7% and −30.5% and −19.3%.

Q: What about the “% sUA change (from baseline), Mean (3-8)” value [33] of the same compound?
A: Its value is −29.2%.

Q: What about the “Absolute sUA concentration, Mean (3-8)” value [33] of the same compound?
A: Its value is 4.6 mg/dL.
